Measurements as given in patent US20040092549A1, “Methods and compositions for selective cancer chemotherapy” (priority 2001, published 2004).

Legend:
[1] = test system: Malme-3 Normal Human Skin Fibroblasts; experiment: Cell-death detection ELISA (apoptosis), Malme-3 normal skin fibroblasts; format: cell-based
Experimental: (§1) Working stock solutions (10× strength) are made in sterile water immediately before use. For comparative evaluation, stock solutions of Test 2 and Test 4 solutions are prepared in sterile water, normalized to contain AA equivalents identical to the Test 1 stock. These stocks are stored at room temperature for use in evaluations. […] Parallel sets of wells are treated similarly with stock solutions of CA+CT and CA alone, containing the same equivalents of AA as Test 1. Control cultures are treated with an equivalent volume of sterile water. Periodic treatment with these compositions is repeated at 1-2 day intervals by direct addition of fresh solutions (without change of growth medium). […] Briefly, the ELISA assay is carried out as follows. […] The “Number of Treatments” is the total number of treatments with the Composition. The “Maximum Fold Increase in Apoptosis” is the maximal fold change in apoptosis over the control and the “Maximum Dose” is the concentration of the Composition which induces the “Maximum Fold Apoptosis” compared to the control.

[2] = test system: Malme-3M Melanoma; experiment: Cell-death detection ELISA (apoptosis), Malme-3M melanoma; format: cell-based, Human
Experimental: as §1

[3] = test system: WRL-68 Normal Human Liver Cells; experiment: Cell-death detection ELISA (apoptosis), WRL-68 normal liver cells; format: cell-based
Experimental: as §1

[4] = test system: SK-Hep-1 Liver adenocarcinoma; experiment: Cell-death detection ELISA (apoptosis), SK-Hep-1 liver adenocarcinoma; format: cell-based, Human
Experimental: as §1

[5] = test system: SK-N-MC Neuroblastoma; experiment: Cell-death detection ELISA (apoptosis), SK-N-MC neuroblastoma; format: cell-based, Human
Experimental: as §1

[6] = test system: T-84 Colon Carcinoma; experiment: Cell-death detection ELISA (apoptosis), T-84 colon carcinoma; format: cell-based, Human
Experimental: as §1

[7] = test system: hepatoma cells; settings: treatment as in Example 2
Experimental: (§2) Cultures are re-fed periodically with additions of respective supplements, with or without medium change as indicated. Controls consist of cells receiving growth medium without added supplement.
(§3) The following day, threonate treatment is initiated using one of two protocols.
(§4) In one protocol (short exposure), monolayers are washed and exposed directly to 1 mL/well of 7.5-30 mM threonate (prepared in Ringer's solution) for brief periods at 37 C. as described by Fay and Verlangieri (referenced above). […] After exposure, the solution is removed and replaced by growth medium. […]
(§5) Cell survival following treatment is assessed at predetermined intervals by taking viable cell counts using a Neubauer haemocytometer. Viable cells are scored as those capable excluding trypan blue as previously described (Harakeh and Jariwalla, Am.J.Clin.Nutr. 54:1231S-1235S (1991)). […]
(§6) The induction of apoptosis following treatment of various tumor cell types with the Test compositions and controls described in Example 1 is evaluated using an enzyme-linked immunoassay (“ELISA”) developed by Boehringer-Mannheim (Indianapolis, Ind.). […] The presence and level of nucleosomal fragments in cytoplasmic lysates after different treatments is determined using the procedure specified in the cell-death detection ELISA kit, supplied by Boehringer-Mannheim. […]

[8] = test system: melanoma cells; settings: treatment as in Example 2
Experimental: as §2, §3, §4, §5, §6

[9] = concentration causing 2-fold change in apoptosis over control
[10] = concentration inducing the maximum fold apoptosis
[11] = maximal fold change over control

Compound	MINIMUM APOPTOTIC DOSE, DOSE CONC. (%) [1, 9] [%]	MAXIMUM FOLD INCREASE IN APOPTOSIS, DOSE CONC. (%) [1, 10] [%]	MAXIMUM FOLD INCREASE IN APOPTOSIS [1, 11] [fold]	MINIMUM APOPTOTIC DOSE, DOSE CONC. (%) [2, 9] [%]	MAXIMUM FOLD INCREASE IN APOPTOSIS, DOSE CONC. (%) [2, 10] [%]	MAXIMUM FOLD INCREASE IN APOPTOSIS [2, 11] [fold]	MINIMUM APOPTOTIC DOSE, DOSE CONC. (%) [3, 9] [%]	MAXIMUM FOLD INCREASE IN APOPTOSIS, DOSE CONC. (%) [3, 10] [%]	MAXIMUM FOLD INCREASE IN APOPTOSIS [3, 11] [fold]	MINIMUM APOPTOTIC DOSE, DOSE CONC. (%) [4, 9] [%]	MAXIMUM FOLD INCREASE IN APOPTOSIS, DOSE CONC. (%) [4, 10] [%]	MAXIMUM FOLD INCREASE IN APOPTOSIS [4, 11] [fold]	MINIMUM APOPTOTIC DOSE, DOSE CONC. (%) [5, 9] [%]	MAXIMUM FOLD INCREASE IN APOPTOSIS, DOSE CONC. (%) [5, 10] [%]	MAXIMUM FOLD INCREASE IN APOPTOSIS [5, 11] [fold]	MINIMUM APOPTOTIC DOSE, DOSE CONC. (%) [6, 9] [%]	MAXIMUM FOLD INCREASE IN APOPTOSIS, DOSE CONC. (%) [6, 10] [%]	MAXIMUM FOLD INCREASE IN APOPTOSIS [6, 11] [fold]	cell death (apoptosis) in hepatoma cells as compared to normal cellular counterparts [7]	cell death (apoptosis) in melanoma cells as compared to normal cellular counterparts [8]
Calcium Ascorbate	0.025	0.025	2.16	0.012	0.025	92.8	0.012	0.012	2.22	0.006	0.033	12.04	0.015	0.015	5.03	>0.06	0.033	1.77	–	–
Calcium Threonate [calcium threonate (CT)]	–	–	–	–	–	–	–	–	–	–	–	–	–	–	–	–	–	–	selective dose-dependent cell death (apoptosis)	selective dose-dependent cell death (apoptosis)
O=C1O[C@H]([C@@H](O)CO)C(O)=C1O [ascorbic acid (AA), Ascorbic Acid]	–	–	–	–	–	–	–	–	–	–	–	–	–	–	–	–	–	–	–	selective dose-dependent cell death (apoptosis)
